ChEMBL document CHEMBL2434938, “Identification of new inhibitors for low molecular weight protein tyrosine phosphatase isoform B” (Bioorg Med Chem Lett, 2013)

Target: Low molecular weight phosphotyrosine protein phosphatase (Homo sapiens) (UniProt P24666)
Assay: Competitive inhibition of LMW-PTP-B (unknown origin)

Low molecular weight phosphotyrosine protein phosphatase (Homo sapiens), sequence (P24666 whole entry, looked up): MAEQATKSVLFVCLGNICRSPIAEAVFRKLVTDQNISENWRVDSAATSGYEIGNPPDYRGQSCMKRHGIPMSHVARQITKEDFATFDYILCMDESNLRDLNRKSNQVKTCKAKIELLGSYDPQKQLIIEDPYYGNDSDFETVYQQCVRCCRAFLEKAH

With `Cc1ncc(COP(=O)(O)O)c(C=O)c1O` the Kis was 7.6 µM.

Target: Low molecular weight phosphotyrosine protein phosphatase (Homo sapiens) (UniProt P24666)
Assay: Competitive inhibition of human GST-tagged LMW-PTP-B expressed in Escherichia coli JM 109 cells using p-nitrophenyl phosphate as substrate after 15 mins by microplate reader analysis

Going from `Oc1cc(-c2nn[nH]n2)nc(O)n1` to `Nc1nc2c[nH]c(N)nc-2n1`, the Kis falls from > 450 µM to 31.7 µM.

`O=C(O)CCCC[C@@H]1SC[C@@H]2NC(=O)N[C@@H]21` and `O=C(O)CCNC1CCCCC1` are within 1.5-fold of each other in Kis: 2330 µM for the first, 3300 µM for the second.

`CC(C)(C)c1ccc(OCC(=O)O)cc1` and `Cn1c(=O)c2nc(COc3ccc(C(C)(C)C)cc3)[nH]c2n(C)c1=O` cannot be ordered by Kis: > 450 µM for the first, > 450 µM for the second.

`CC[C@@]1(O)C(=O)OCc2c1cc1n(c2=O)Cc2cc3c(NC(=O)CN)cccc3nc2-1` and `O=C(O)/C=C/C(=O)N1Cc2cc3ccccc3nc2C1` are within 1.5-fold of each other in Kis: 538 µM for the first, 493 µM for the second.

`N=C(N)n1c(N)nc2ccccc2c1=O` and `O=C(O)c1nn(-c2ccccc2-c2nnc(O)nc2O)c(=O)[nH]c1=O` are within 1.5-fold of each other in Kis: 1180 µM for the first, 1650 µM for the second.

Compared with `C[C@@H]1O[C@@H](Oc2c(-c3cc(O)c(O)c(O)c3)oc3cc(O)cc(O)c3c2=O)[C@H](O)[C@H](O)[C@H]1O`, `Cc1c2cc(O)c(=O)cc-2oc2cc(O)c(O)cc12` is lower in Kis: > 126 µM for the first, 13.5 µM for the second.

`Nc1nc(N)nc([C@@H]2C=CCCC2)n1` and `CCCCSc1cc(C)nc(N)n1` cannot be ordered by Kis: > 450 µM for the first, > 450 µM for the second.

`Cc1cccc(C)c1NC(=O)Nc1ccc(S(N)(=O)=O)cc1` and `Cc1ccc([N+](=O)[O-])cc1NC(=O)Nc1ccc(S(N)(=O)=O)cc1` are within 1.5-fold of each other in Kis: 1760 µM for the first, 2230 µM for the second.

`O=C(O)C1OCC2(CO1)COC(C(=O)O)OC2` (stereo not given) and `OCC(O)C1OCOC(C(O)CO)C1O` (stereo not given) cannot be ordered by Kis: > 450 µM for the first, > 450 µM for the second.

`Nc1nc(SCc2ccccn2)c2ncn([C@@H]3O[C@H](CO)[C@@H](O)[C@H]3O)c2n1` and `Nc1nc(N)c(/N=N/c2ccc(SCC(=O)O)cc2)c(O)n1` cannot be ordered by Kis: > 450 µM for the first, 730 µM for the second.

`O[C@@H]1[C@H](OCc2ccccc2)OC[C@@H](O)[C@H]1O` and `c1ccc(CSc2nc3c[nH]cnc-3n2)cc1` cannot be ordered by Kis: > 450 µM for the first, > 450 µM for the second.

First: O=c1cc(-c2ccc(O)cc2)oc2c(O)c(O)c(O)c(O)c12
Second: O=c1c(O)cccc2cc(O)c(O)c(O)c12
The Kis of the first is 1.8-fold higher: 18.8 µM for the first, 10.4 µM for the second.

`CC(C)c1nc2c(=O)n(C)c(=O)n(C)c2[nH]1` and `Cn1c(=O)c2nc(CNc3ccc(C(=O)O)cc3)[nH]c2n(C)c1=O` cannot be ordered by Kis: > 450 µM for the first, 1560 µM for the second.

Compared with `O=C(O)Cc1ccc(/N=N/c2c(O)c(C(=O)O)cc3ccccc23)cc1`, `O=C(O)c1ccc2c(c1Nc1ccccc1)C(=O)c1ccccc1C2=O` is 4.8-fold higher in Kis: 33.5 µM for the first, 161 µM for the second.

First: Cc1cc(C)c2c(SC(C)C)nc(N)nc2n1
Second: Nc1nc(N)c(/N=N/c2ccc(S(N)(=O)=O)cc2)c(O)n1
The Kis of the first is 7.2-fold higher: 925 µM for the first, 128 µM for the second.

Going from `O=C(/C=C/c1ccc(O)c(O)c1)OC1[C@@H](O)CC(OC(=O)/C=C/c2ccc(O)c(O)c2)(C(=O)O)C[C@@H]1O` (stereo not given in full) to `O=c1oc2c(cc1O)oc(=O)c1cc(O)c(O)c(O)c12`, the Kis falls from 635 µM to 10.8 µM (59-fold).

`Cc1cccc(N=C(S)Nc2cccc(C)n2)n1` and `COc1ccc2nc3cc(Cl)ccc3c(C#N)c2c1` cannot be ordered by Kis: > 450 µM for the first, > 450 µM for the second.

Compared with `COC(=O)[C@@H]1[C@H](O)[C@H](C)[C@H](O)[C@H](C)/C=C\C=C(/C)C(=O)Nc2c(C)c(OC(C)=O)c3c(c2O)C(=O)C(C)=C2OCOC(=C23)/C(C)=C/[C@@](C)(O)[C@H](O)[C@@H](C)[C@H]1O`, `CC1=C[C@H](O)[C@@H](O)[C@]2(C)[C@H]3[C@@]4(O)OC[C@]35[C@H]([C@@H](C)[C@H]4O)[C@@H](O)C(=O)O[C@@H]5C[C@@H]12` is higher in Kis: 93.9 µM for the first, > 450 µM for the second.

Going from `Cc1ncc(COP(=O)(O)O)c(C=O)c1O` to `COc1ccc(C(=O)O)nc1C`, the Kis rises from 3.73 µM to 2780 µM (750-fold).

`O=C(O)c1ccc(N2CCCCC2)cc1O` and `Nc1o[nH]c(=O)c1C1CCCCC1` cannot be ordered by Kis: > 450 µM for the first, > 450 µM for the second.

For `O=Cc1c[nH]c2ncccc12`, the Kis was 7190 µM.

Target: Low molecular weight phosphotyrosine protein phosphatase (Homo sapiens) (UniProt P24666)
Assay: Uncompetitive inhibition of human GST-tagged LMW-PTP-B expressed in Escherichia coli JM 109 cells using p-nitrophenyl phosphate as substrate after 15 mins by microplate reader analysis

Compared with `CCO[C@H]1CCc2c(C)nc(N)nc2S1`, `O=C1c2ccccc2C(=O)c2[nH]cnc21` is 15-fold lower in Kii: 122 µM for the first, 7.97 µM for the second.

In the case of `Cc1c2cc(O)c(=O)cc-2oc2cc(O)c(O)cc12`, the Kii is reported as 31.7 µM.
